Results published in PMC10056636, “3-Amino-Substituted Analogues of Fusidic Acid as Membrane-Active Antibacterial Compounds” (Membranes, 2023).
≈ marks a conversion by molar mass, not a printed value. Like-named read-outs stand apart in the source and are kept apart here.

Columns and labels:
[1] = tested on: human red blood cells; assay: Hemolysis assay; type: cell-based; conditions: human, 1 h
Experimental: (§1) Human whole blood was washed three times with 3 volumes of 0.9% NaCl and then resuspended in the same medium to a concentration of 0.5 × 10^8 cells/mL, as determined by manual cell count in a Neubauer hemocytometer. The washed cells were then added to 384-well plates containing the test compounds to a final volume of 50 µL. After shaking on a plate shaker for 10 min, the plates were incubated for 1 h at 37 °C. After incubation, the plates were centrifuged at 1000× g for 10 min to pellet the cells and debris; 25 µL of the supernatant was then transferred to a polystyrene 384-well assay plate.
(§2) Hemolysis was monitored by measuring the supernatant absorbance at […] (OD405). The absorbance was measured using a Tecan M1000 Pro monochromator plate reader. HC10 and HC50 (10% and 50% hemolysis concentrations, respectively) were calculated by curve fitting of inhibition vs. log(concentration) using a sigmoidal dose–response function with variable fitting values for top, bottom, and slope. In addition, the maximal percentage of hemolysis is reported as DMax, indicating any compounds with partial hemolysis. The curve fitting was implemented using Pipeline Pilot’s dose–response component. […] Any value with > indicated sample with no activity (low DMax value) or samples with HC10 values above the maximum tested concentration (higher DMax value).
(§3) In addition, samples were flagged as partially hemolytic if DMax ≥ 50%, even for HC10 > the maximum tested concentration. […]

[2] = Hemolysis assay; type: cell-based, human; conditions: for hemolysis at 1 h: human, Dmax (maximal percentage of hemolysis)
Experimental: as §1, §2, §3

[3] = in vitro; type: cell-based, human; conditions: human, CC50
Experimental: (§4) HEK293 cells were counted manually in a Neubauer hemocytometer and then plated in 384-well plates containing the test compounds to give a density of 5000 cells per well in a final volume of 50 µL. DMEM supplemented with 10% FBS was used as the growth medium, and the cells were incubated together with the compounds for 20 h at 37 °C in 5% CO2.
(§5) The cytotoxicity (or cell viability) was measured by fluorescence, ex: 560/10 nm, em: 590/10 nm (F560/590), after addition of 5 µL of 25 µg/mL resazurin (2.3 µg/mL final concentration) and after incubation for further 3 h at 37 °C in 5% CO2. The fluorescence intensity was measured using a Tecan M1000 Pro monochromator plate reader with automatic gain control. The CC50 (50% cytotoxicity concentration) values were calculated by curve fitting of inhibition vs. log(concentration) using a sigmoidal dose–response function, with variable fitting values for bottom, top, and slope. In addition, the maximal percentage of cytotoxicity is reported as DMax, indicating any compounds with partial cytotoxicity. The curve fitting was implemented using Pipeline Pilot’s dose–response component. The results were similar to those obtained by other curve-fitting tools, such as GraphPad’s Prism and IDBS’s XlFit. Any value with > indicated samples with no activity (low DMax value) or samples with CC50 values above the maximum tested concentration (higher DMax value).
(§6) In addition, samples were flagged as partially cytotoxic if DMax ≥ 50%, even for CC50 > the maximum tested concentration.
(§7) Tamoxifen served as a positive cytotoxicity standard. Melittin was used as a positive hemolytic standard.

[4] = tested on: human embryonic kidney cell line HEK293 (ATCC CRL-1573); assay: in vitro; type: cell-based; conditions: for CC50: human, 20 h
Experimental: as §4, §5, §6, §7

[5] = tested on: Staphylococcus aureus (ATCC 43300) (MRSA); assay: Antibacterial whole-cell growth inhibition (MIC, CO-ADD); type: cell-based; conditions: for primary screening: antimicrobial activity: S. aureus (MRSA), primary screen at 32 μg/mL
Experimental: (§8) Antibacterial screening was carried out by the serial dilution method. All bacteria were cultured in the cation-adjusted Mueller Hinton broth (CAMHB) at 37 °C overnight. A sample of each culture was then diluted 40-fold in fresh broth and incubated at 37 °C for 1.5–3 h. The resultant mid-log phase cultures were diluted (CFU/mL measured by OD600) and then added into each well containing a test compound, giving a cell density of 5 × 10^5 CFU/mL and a total volume of 50 µL. All the plates were covered and incubated at 37 °C for 18 h without shaking.
(§9) Inhibition of bacterial growth was determined by measuring the absorbance at 600 nm (OD600) with a Tecan M1000 Pro monochromator plate reader. […]

[6] = tested on: Cryptococcus neoformans (ATCC 208821); assay: Antifungal growth inhibition (MIC, CO-ADD); conditions: for MIC: inhibition ≥70%, two replicates per cell; for primary screening: growth inhibition: primary screen at 32 μg/mL
Experimental: Antimicrobial, cytotoxicity, and hemolytic activity screening of the synthesized derivatives was carried out in the CO-ADD (The Community for Antimicrobial Drug Discovery) (http://www.co-add.org, accessed on 24 November 2020) and included analysis for antibacterial properties, cytotoxicity, and hemolytic activity.
The hit confirmation test included five bacteria, Escherichia coli (ATCC 25922), Klebsiella pneumoniae (ATCC 700603), Acinetobacter baumannii (ATCC 19606), Pseudomonas aeruginosa (ATCC 27853), and Staphylococcus aureus (ATCC 43300), and two fungi, Candida albicans (ATCC 90028) and Cryptococcus neoformans (ATCC 208821). […] The compounds were also screened for hemolysis of human red blood cells (human whole blood, strain ARCBS 5400 00150).
Samples were prepared in DMSO and water to a final testing concentration of 32 µg/mL or 20 µM (unless otherwise indicated in the data sheet) and serially diluted twofold up to 8 times. Each sample concentration was prepared in 384-well plates: non-binding surface plate (NBS; Corning 3640) for each bacterial/fungal strain, tissue-culture treated (TC-treated; Corning 3712/3764) black for mammalian cell types and polypropylene 384-well plates (PP; Corning 3657) for hemolysis assays. The final DMSO concentration was maintained to a maximum of 0.5%. All sample preparation procedures were performed using liquid-handling robots. All screening was performed as two replica (n = 2), with both replicas on different assay plates, but from single plating and performed in a single screening experiment (microbial incubation). In addition, two values are used as quality controls for individual plates: Z′-Factor [1 − (3* (sd(NegCtrl) + sd(PosCtrl))/(average(PosCtrl)-average(NegCtrl)))] and standard antibiotic controls at different concentrations (>MIC and <MIC).
Fungi strains were cultured for 3 days on yeast extract-peptone dextrose (YPD) agar at 30 °C. A yeast suspension of 1 × 10^6 to 5 × 10^6 CFU/mL (as determined by OD530) was prepared from five colonies. The suspension was subsequently diluted and added to each well containing a test compound, giving a final cell density of fungi suspension of 2.5 × 10^3 CFU/mL and a total volume of 50 µL. All plates were covered and incubated at 35 °C for 36 h without shaking.
The absorbance was measured using a Biotek Multiflo Synergy HTX plate reader. In both cases, the percentage of growth inhibition was calculated for each well, using the negative control (media only) and positive control (fungi without inhibitors) in the same plate. […] In addition, the maximal percentage of growth inhibition is reported as DMax, indicating any compounds with marginal activity.
Fluconazole was used as a positive fungal inhibitor standard for C. albicans and C. neoformans. […] The quality control (QC) of the assays was performed using Z′-factors calculated from the negative (media only) and positive controls (bacterial, fungal, or cell culture without inhibitor) and the standards.

[7] = tested on: Acinetobacter baumannii (ATCC 19606); assay: Antibacterial whole-cell growth inhibition (MIC, CO-ADD); type: cell-based; conditions: A. baumannii, two replicates per cell
Experimental: as §8, §9

[8] = tested on: Pseudomonas aeruginosa (ATCC 27853); assay: as above; type: cell-based; conditions: P. aeruginosa, two replicates per cell
Experimental: as §8, §9

[9] = tested on: Escherichia coli (ATCC 25922); assay: as above; type: cell-based; conditions: E. coli, two replicates per cell
Experimental: as §8, §9

[10] = tested on: Candida albicans (ATCC 90028); assay: Antifungal growth inhibition (MIC, CO-ADD); type: cell-based
[11] = Staphylococcus aureus, S. aureus (MRSA) ATCC 43300, inhibition ≥80%, two replicates (n = 2), read-out: MIC
[12] = S. aureus (MRSA) ATCC 43300, inhibition ≥80%, two replicates (n = 2)
[13] = Cryptococcus neoformans, ATCC208821, C. neoformans

Compound | Dmax (maximal percentage of hemolysis) [1] | HC50 [1] | hemolysis at 1 h [2] | CC50 at 20 h [3] | CC50 [4] | primary screening: antimicrobial activity [5] | MIC [5, 11] | MIC [5, 12] | further results
CC(=O)O[C@H]1C[C@@]2(C)[C@@H](CC(=O)[C@H]3[C@@]4(C)CCC(=O)[C@@H](C)[C@@H]4CC[C@@]32C)/C1=C(\CCC=C(C)C)C(=O)O [Compound 1] | 10.6% | >32 >32 µg/mL | 7.3% | > 32 µg/mL | >32 >32 µg/mL | showed antimicrobial activity | 8 µg/mL (≈ 15.6 µM) |  | 
CC(=O)O[C@H]1C[C@@]2(C)[C@@H](CC(=O)[C@H]3[C@@]4(C)CC[C@H](N5CCCC5)[C@@H](C)[C@@H]4CC[C@@]32C)/C1=C(\CCC=C(C)C)C(=O)O [Compound 7] | 2.6% | >32 >32 µg/mL | 2.3% | > 32 µg/mL | >32 >32 µg/mL | showed antimicrobial activity | 8 µg/mL (≈ 14.1 µM) |  | 
CC(=O)O[C@H]1C[C@@]2(C)[C@@H](CC(=O)[C@H]3[C@@]4(C)CC[C@H](NCc5ccccc5)[C@@H](C)[C@@H]4CC[C@@]32C)/C1=C(\CCC=C(C)C)C(=O)O [Compound 9] | 2.3% | >32 >32 µg/mL | 3.7% | > 32 µg/mL | >32 >32 µg/mL | showed antimicrobial activity | 8 µg/mL (≈ 13.2 µM) |  | 
COC(=O)/C(CCC=C(C)C)=C1\[C@@H](OC(C)=O)C[C@@]2(C)[C@H]1C[C@@H](O)[C@H]1[C@@]3(C)CC[C@H](NCCN)[C@@H](C)[C@@H]3CC[C@@]12C [Compound 12] | 27.8% | >32 >32 µg/mL | 34.8% | 7.77 µg/mL (≈ 13.6 µM) | 13.2 µg/mL (≈ 23 µM) | showed antimicrobial activity | 32 µg/mL (≈ 55.9 µM) | 32 µg/mL (≈ 55.9 µM) | MIC ([6]; C. neoformans): 16 µg/mL (≈ 27.9 µM); primary screening: growth inhibition ([6]; C. neoformans): inhibited the growth; MIC [6, 13]: 16 µg/mL (≈ 27.9 µM)
CCCCN[C@H]1CC[C@@]2(C)[C@@H](CC[C@@]3(C)[C@H]2[C@H](O)C[C@H]2/C(=C(\CCC=C(C)C)C(=O)OC)[C@@H](OC(C)=O)C[C@@]23C)[C@@H]1C [Compound 14] | 3.6% | >32 >32 µg/mL | 3.4% | 26 µg/mL (≈ 44.4 µM) | 23.8 µg/mL (≈ 40.6 µM) | showed antimicrobial activity | 32 µg/mL (≈ 54.6 µM) | 32 µg/mL (≈ 54.6 µM) | 
COC(=O)/C(CCC=C(C)C)=C1\[C@@H](OC(C)=O)C[C@@]2(C)[C@H]1C[C@@H](O)[C@H]1[C@@]3(C)CC[C@H](NCc4ccccc4)[C@@H](C)[C@@H]3CC[C@@]12C [Compound 18] |  | >32 >32 µg/mL |  | 17.8 µg/mL (≈ 28.7 µM) | 17.5 µg/mL (≈ 28.2 µM) | showed antimicrobial activity | 16 µg/mL (≈ 25.8 µM) | 16 µg/mL (≈ 25.8 µM) | MIC ([6]; C. neoformans): 32 µg/mL (≈ 51.6 µM); primary screening: growth inhibition ([6]; C. neoformans): inhibited the growth; MIC [6, 13]: 32 µg/mL (≈ 51.6 µM)
CC(=O)O[C@H]1C[C@@]2(C)[C@@H](C[C@@H](O)[C@H]3[C@@]4(C)CC[C@H](NCCCNCCCCN)[C@@H](C)[C@@H]4CC[C@@]32C)/C1=C(\CCC=C(C)C)C(=O)O [Compound 19] | 5.3% | >32 >32 µg/mL | 5.5% | > 32 µg/mL | >32 >32 µg/mL |  |  | 32 µg/mL (≈ 49.7 µM) | MIC [7]: >32 >32 µg/mL; MIC ([7]; Acinetobacter baumannii, ATCC19606, read-out: MIC): > 32 µg/mL; MIC [8]: >32 >32 µg/mL; MIC ([8]; Pseudomonas aeruginosa, ATCC27853, read-out: MIC): > 32 µg/mL; MIC [9]: >32 >32 µg/mL; MIC ([9]; Escherichia coli, ATCC25922, read-out: MIC): > 32 µg/mL; MIC ([10]; C. albicans, inhibition ≥80%, two replicates per cell): >32 >32 µg/mL; MIC ([10]; Candida albicans, ATCC90028, C. albicans, inhibition ≥80%, two replicates per cell, read-out: MIC): > 32 µg/mL
OC(Cn1cncn1)(Cn1cncn1)c1ccc(F)cc1F [Fluconazole, reference compound] |  |  |  |  |  |  |  |  | MIC [6, 13]: 8 µg/mL (≈ 26.1 µM); MIC ([10]; Candida albicans, ATCC90028): 0.125 µg/mL (≈ 0.408 µM)
CC[C@H](C)[C@H](NC(=O)CN)C(=O)NCC(=O)N[C@@H](C)C(=O)N[C@H](C(=O)N[C@@H](CC(C)C)C(=O)N[C@@H](CCCCN)C(=O)N[C@H](C(=O)N[C@@H](CC(C)C)C(=O)N[C@H](C(=O)N[C@H](C(=O)NCC(=O)N[C@@H](CC(C)C)C(=O)N1CCC[C@H]1C(=O)N[C@@H](C)C(=O)N[C@@H](CC(C)C)C(=O)N[C@H](C(=O)N[C@@H](CO)C(=O)N[C@@H](Cc1c[nH]c2ccccc12)C(=O)N[C@H](C(=O)N[C@@H](CCCCN)C(=O)N[C@@H](CCCNC(=N)N)C(=O)N[C@@H](CCCCN)C(=O)N[C@@H](CCCNC(=N)N)C(=O)N[C@@H](CCC(N)=O)C(=O)N[C@@H](CCC(N)=O)C(N)=O)[C@@H](C)CC)[C@@H](C)CC)[C@@H](C)O)[C@@H](C)O)C(C)C)C(C)C [Melittin, reference compound] |  |  |  |  |  |  |  |  | hemolysis ([2]; human erythrocytes, two replicates per cell, read-out: Dmax (maximal percentage of hemolysis)): 50%
CC/C(=C(\c1ccccc1)c1ccc(OCCN(C)C)cc1)c1ccccc1 [Tamoxifen, reference compound] |  |  |  | 9 µg/mL (≈ 24.2 µM) |  |  |  |  | Dmax (maximal percentage of cytotoxicity) [4]: 50%
CN[C@H](CC(C)C)C(=O)N[C@H]1C(=O)N[C@@H](CC(N)=O)C(=O)N[C@H]2C(=O)N[C@H]3C(=O)N[C@H](C(=O)N[C@H](C(=O)O)c4cc(O)cc(O)c4-c4cc3ccc4O)[C@H](O)c3ccc(c(Cl)c3)Oc3cc2cc(c3O[C@@H]2O[C@H](CO)[C@@H](O)[C@H](O)[C@H]2O[C@H]2C[C@](C)(N)[C@H](O)[C@H](C)O2)Oc2ccc(cc2Cl)[C@H]1O [Vancomycin, reference compound] |  |  |  |  |  |  |  |  | MIC ([5]; Staphylococcus aureus): 1 µg/mL (≈ 0.69 µM)
Colistin [reference compound] |  |  |  |  |  |  |  |  | MIC [7]: 0.25 µg/mL; MIC [8]: 0.25 µg/mL; MIC [9]: 0.125 µg/mL
